Data: ChEMBL document CHEMBL1201862, “PubChem BioAssay data set” (2004)
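Tested at 5 concentrations; 48 h exposure; 96-well plates; endpoints linearly interpolated, else capped at highest concentration. The concentration for 50% growth inhibition is given as GI50.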 Calls of active or inactive are those of the source. Rule as the data show it: active = GI50 up to about 1.1 µM and inactive = higher.

Tests used:
Experiment in all cases: NCI anticancer screen, dose series, 48 h
786-0 = tested on: 786-0
A498 = tested on: A498
A549 = tested on: A549
ACHN = tested on: ACHN
BT-549 = tested on: BT-549
CCRF-CEM = tested on: CCRF-CEM
COLO 205 = tested on: COLO 205
DU-145 = tested on: DU-145
EKVX = tested on: EKVX
HCC 2998 = tested on: HCC 2998
HCT-15 = tested on: HCT-15
HL-60 = tested on: HL-60
HOP-62 = tested on: HOP-62
HOP-92 = tested on: HOP-92
HT-29 = tested on: HT-29
Hs-578T = tested on: Hs-578T
IGROV-1 = tested on: IGROV-1
K562 = tested on: K562
KM12 = tested on: KM12
M14 = tested on: M14
MCF7 = tested on: MCF7
MDA-MB-435 = tested on: MDA-MB-435
MDA-N = tested on: MDA-N
MOLT-4 = tested on: MOLT-4
Malme-3M = tested on: Malme-3M
NCI-H226 = tested on: NCI-H226
NCI-H23 = tested on: NCI-H23
NCI-H460 = tested on: NCI-H460
NCI/ADR-RES = tested on: NCI/ADR-RES
OVCAR-3 = tested on: OVCAR-3
OVCAR-5 = tested on: OVCAR-5
OVCAR-8 = tested on: OVCAR-8
PC-3 = tested on: PC-3
RPMI-8226 = tested on: RPMI-8226
RXF 393 = tested on: RXF 393
SF-268 = tested on: SF-268
SF-295 = tested on: SF-295
SF-539 = tested on: SF-539
SK-MEL-28 = tested on: SK-MEL-28
SK-MEL-5 = tested on: SK-MEL-5
SK-OV-3 = tested on: SK-OV-3
SN12C = tested on: SN12C
SNB-19 = tested on: SNB-19
SNB-75 = tested on: SNB-75
SR = tested on: SR
SW-620 = tested on: SW-620
T47D = tested on: T47D
TK-10 = tested on: TK-10
U-251 = tested on: U-251
UACC-257 = tested on: UACC-257
UACC-62 = tested on: UACC-62
UO-31 = tested on: UO-31
CAKI-1 = tested on: CAKI-1
HCT-116 = tested on: HCT-116
LOX IMVI = tested on: LOX IMVI
MDA-MB-231 = tested on: MDA-MB-231
NCI-H522 = tested on: NCI-H522
OVCAR-4 = tested on: OVCAR-4
SK-MEL-2 = tested on: SK-MEL-2

Measured: GI50

COc1cc(COC(=O)N(CC(=O)O)c2ccccc2)c([N+](=O)[O-])cc1OC
inactive: 786-0 > 100 µM | A498 62.7 µM | A549 > 100 µM | ACHN > 100 µM | BT-549 > 100 µM | CCRF-CEM > 100 µM | COLO 205 > 100 µM | DU-145 > 100 µM | EKVX > 100 µM | HCC 2998 > 100 µM | HL-60 > 100 µM | HOP-62 > 100 µM | HOP-92 > 100 µM | HT-29 > 100 µM | Hs-578T > 100 µM | IGROV-1 > 100 µM | K562 > 100 µM | KM12 > 100 µM | M14 > 100 µM | MCF7 > 100 µM | MDA-MB-435 > 100 µM | MDA-N > 100 µM | MOLT-4 > 100 µM | Malme-3M > 100 µM | NCI-H226 > 100 µM | NCI-H23 > 100 µM | NCI-H460 > 100 µM | NCI/ADR-RES > 100 µM | OVCAR-3 > 100 µM | OVCAR-5 > 100 µM | OVCAR-8 > 100 µM | PC-3 > 100 µM | RPMI-8226 > 100 µM | RXF 393 > 100 µM | SF-268 > 100 µM | SF-295 > 100 µM | SF-539 > 100 µM | SK-MEL-28 > 100 µM | SK-MEL-5 > 100 µM | SK-OV-3 > 100 µM | SN12C > 100 µM | SNB-19 > 100 µM | SNB-75 > 100 µM | SR > 100 µM | SW-620 > 100 µM | T47D > 100 µM | TK-10 > 100 µM | U-251 > 100 µM | UACC-257 > 100 µM | UACC-62 > 100 µM | UO-31 > 100 µM
> 100 µM: HCT-15

C=C(C)[C@@H]1CC[C@@H]2C(=CC[C@]3(C)C([C@H](C)CC/C=C(/C)C(=O)O)CC[C@@]23C)[C@@]1(C)CCC(=O)O (some centres undefined)
21.3 µM: HCT-15
inactive: 786-0 21.8 µM | A498 33.3 µM | A549 36.8 µM | ACHN 19 µM | BT-549 21.6 µM | CAKI-1 23.8 µM | CCRF-CEM 21.9 µM | COLO 205 22.6 µM | DU-145 24.2 µM | EKVX 36.3 µM | HCC 2998 18.8 µM | HCT-116 22.3 µM | HL-60 26.8 µM | HOP-62 52.8 µM | HOP-92 19.2 µM | HT-29 21.7 µM | Hs-578T 33.3 µM | IGROV-1 28.2 µM | K562 33 µM | KM12 23.4 µM | LOX IMVI 19.2 µM | M14 29.5 µM | MCF7 39.6 µM | MDA-MB-231 25.2 µM | MDA-MB-435 29.2 µM | MDA-N 28.3 µM | Malme-3M 25.5 µM | NCI-H226 21.3 µM | NCI-H23 24 µM | NCI-H460 20.4 µM | NCI-H522 22.7 µM | OVCAR-3 19.9 µM | OVCAR-4 36.6 µM | OVCAR-5 30.5 µM | OVCAR-8 34.4 µM | PC-3 24.9 µM | RPMI-8226 22.9 µM | RXF 393 19.4 µM | SF-268 37.7 µM | SF-295 30.3 µM | SF-539 30.4 µM | SK-MEL-28 27.9 µM | SK-MEL-2 20.2 µM | SK-MEL-5 16.9 µM | SK-OV-3 37.7 µM | SN12C 33.4 µM | SNB-19 34 µM | SNB-75 34.4 µM | SR 21.3 µM | SW-620 29 µM | T47D 45.8 µM | TK-10 36.6 µM | U-251 24.5 µM | UACC-257 23.8 µM | UACC-62 20.4 µM | UO-31 16.7 µM
